The results in this text go back to patent US20020019412A1, “MODULATORS OF PROTEIN TYROSINE PHOSPHATASES (PTPASES)” (priority 1998, published 2002).

Data set [1] deals with T1, PTP1B (Homo sapiens, UniProt P18031).
T1 construct: a truncated form of PTP1B (corresponding to the first 321 amino acids); made in house; host or cells: E. coli
T1 sequence (P18031 1-321): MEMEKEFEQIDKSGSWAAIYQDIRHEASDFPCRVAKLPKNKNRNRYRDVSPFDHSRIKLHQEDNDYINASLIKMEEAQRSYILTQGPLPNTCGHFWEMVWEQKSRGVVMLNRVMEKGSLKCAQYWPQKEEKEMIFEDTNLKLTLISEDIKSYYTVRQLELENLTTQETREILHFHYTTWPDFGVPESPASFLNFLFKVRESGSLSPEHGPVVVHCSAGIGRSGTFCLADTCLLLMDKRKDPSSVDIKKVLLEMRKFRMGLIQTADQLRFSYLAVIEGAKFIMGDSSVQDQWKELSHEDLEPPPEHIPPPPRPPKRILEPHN
As to the kind of experiment: Inhibition of truncated PTP1B, p-nitrophenyl phosphate substrate. Type of data set: biochemical. Particulars: truncated PTP1B (first 321 amino acids) expressed in E. coli; pNPP substrate; pH 5.5; 25° C., 60 minutes. How it is done:
The compounds are evaluated for biological activity with a truncated form of PTP1B (corresponding to the first 321 amino acids), which is expressed in E. coli and purified to apparent homogeneity using published procedures well-known to those skilled in the art. The enzyme reactions are carried out using standard conditions essentially as described by Burke et al. (Biochemistry 35; 15989-15996 (1996)). The assay conditions are as follows. Appropriate concentrations of the compounds of the invention are added to the reaction mixtures containing different concentrations of the substrate, p-nitrophenyl phosphate (range: 0.16 to 10 mM—final assay concentration). The buffer used is 100 mM sodium acetate pH 5.5, 50 mM sodium chloride, 0.1% (w/v) bovine serum albumin and 5 mM dithiothreitol (total volume […]). The reaction is started by addition of the enzyme and carried out in microtiter plates at 25° C. for 60 minutes. The reactions are stopped by addition of NaOH. The enzyme activity is determined by measurement of the absorbance at 405 nm with appropriate corrections for absorbance at 405 nm of the compounds and p-nitrophenyl phosphate. The data are analyzed using nonlinear regression fit to classical Michaelis Menten enzyme kinetic models. Inhibition is expressed as Ki values in μM.

Structures are written as SMILES. Counter-ions that a name gives are not always drawn. Bounds are passed on as bounds.

For `O=C(O)C(=O)Nc1c(C(=O)O)sc2ncccc12` (as salt: sodium) [Example 1, 3-(Oxalyl-amino)-thieno[2,3-b]pyridine-2-carboxylic acid, mono sodium salt], the melting point – broadly, the temperature of the solid-liquid transition – is above 250 °C.

As for `O=C(O)C(=O)Nc1c(C(=O)O)sc2ncccc12` [Example 1, 3-(Oxalyl-amino)-thieno[2,3-b]pyridine-2-carboxylic acid, mono sodium salt], the affinity in data set [1] corresponds to a Ki of 330 µM.
